Assay results from ChEMBL document CHEMBL5465560, “Selectivity Literature for EUbOPEN Chemogenomic Library” (2024).

Experiments:
[1] = target: T1, Serine/threonine-protein kinase BRSK2 (Homo sapiens) (UniProt Q8IWQ3); assay: Selectivity interaction (Upstate Kinase Profiler service (Millipore)) EUB0000056c BRSK2; conditions: at 1 µM
T1 sequence (whole entry): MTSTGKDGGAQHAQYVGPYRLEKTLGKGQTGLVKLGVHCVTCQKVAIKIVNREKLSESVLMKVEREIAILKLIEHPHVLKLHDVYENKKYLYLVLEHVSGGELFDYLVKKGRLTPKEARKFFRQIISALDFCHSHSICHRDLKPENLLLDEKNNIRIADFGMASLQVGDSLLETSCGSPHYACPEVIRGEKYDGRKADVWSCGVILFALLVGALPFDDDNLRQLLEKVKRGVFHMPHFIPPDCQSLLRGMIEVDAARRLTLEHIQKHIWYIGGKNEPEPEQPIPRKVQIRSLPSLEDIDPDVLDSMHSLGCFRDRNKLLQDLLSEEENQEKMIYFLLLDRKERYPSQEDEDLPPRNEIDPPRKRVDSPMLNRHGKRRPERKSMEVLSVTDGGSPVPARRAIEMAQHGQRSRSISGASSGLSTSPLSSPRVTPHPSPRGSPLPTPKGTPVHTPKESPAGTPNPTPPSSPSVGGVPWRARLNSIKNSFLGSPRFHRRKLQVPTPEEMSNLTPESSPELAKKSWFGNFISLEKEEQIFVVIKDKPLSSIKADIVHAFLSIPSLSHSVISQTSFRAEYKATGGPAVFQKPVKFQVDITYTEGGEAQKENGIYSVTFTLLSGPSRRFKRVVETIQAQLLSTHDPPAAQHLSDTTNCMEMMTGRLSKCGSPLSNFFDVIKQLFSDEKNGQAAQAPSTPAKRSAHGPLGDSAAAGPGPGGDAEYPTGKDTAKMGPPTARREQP

[2] = target: Myosin-IIIa (Homo sapiens) (UniProt Q8NEV4); assay: Selectivity interaction (KinomeScan (DiscoverX)) EUB0000666a MYO3A; conditions: at 10 µM
[3] = target: T2, Membrane-associated tyrosine- and threonine-specific cdc2-inhibitory kinase (Homo sapiens) (UniProt Q99640); conditions: at 10 µM
T2 sequence (whole entry): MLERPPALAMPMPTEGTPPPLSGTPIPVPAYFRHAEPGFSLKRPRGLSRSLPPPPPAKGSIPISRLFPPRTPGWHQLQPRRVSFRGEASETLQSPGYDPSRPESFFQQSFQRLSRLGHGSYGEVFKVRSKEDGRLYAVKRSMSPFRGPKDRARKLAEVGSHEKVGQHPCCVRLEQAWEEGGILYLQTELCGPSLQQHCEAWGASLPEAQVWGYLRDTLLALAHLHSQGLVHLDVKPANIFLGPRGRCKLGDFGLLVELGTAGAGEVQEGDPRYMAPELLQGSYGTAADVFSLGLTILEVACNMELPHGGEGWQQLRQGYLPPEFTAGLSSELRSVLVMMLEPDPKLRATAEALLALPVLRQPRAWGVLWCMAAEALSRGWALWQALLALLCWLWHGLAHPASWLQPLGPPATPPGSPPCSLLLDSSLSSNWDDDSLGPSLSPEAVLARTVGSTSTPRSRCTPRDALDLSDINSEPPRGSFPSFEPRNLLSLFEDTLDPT

[4] = target: Cyclin-dependent kinase 16 (Homo sapiens) (UniProt Q00536); assay: Selectivity interaction (KinomeScan (DiscoverX)) EUB0000607a CDK16; conditions: at 10 µM
[5] = target: Tyrosine-protein kinase Fer (Homo sapiens) (UniProt P16591); assay: Selectivity interaction (KinomeScan (DiscoverX)) EUB0000607a FER; conditions: at 10 µM
[6] = target: T3, Mitogen-activated protein kinase kinase kinase 3 (Homo sapiens) (UniProt Q99759); assay: Selectivity interaction (KinomeScan (DiscoverX)) EUB0000607a MAP3K3; conditions: at 10 µM
T3 sequence (whole entry): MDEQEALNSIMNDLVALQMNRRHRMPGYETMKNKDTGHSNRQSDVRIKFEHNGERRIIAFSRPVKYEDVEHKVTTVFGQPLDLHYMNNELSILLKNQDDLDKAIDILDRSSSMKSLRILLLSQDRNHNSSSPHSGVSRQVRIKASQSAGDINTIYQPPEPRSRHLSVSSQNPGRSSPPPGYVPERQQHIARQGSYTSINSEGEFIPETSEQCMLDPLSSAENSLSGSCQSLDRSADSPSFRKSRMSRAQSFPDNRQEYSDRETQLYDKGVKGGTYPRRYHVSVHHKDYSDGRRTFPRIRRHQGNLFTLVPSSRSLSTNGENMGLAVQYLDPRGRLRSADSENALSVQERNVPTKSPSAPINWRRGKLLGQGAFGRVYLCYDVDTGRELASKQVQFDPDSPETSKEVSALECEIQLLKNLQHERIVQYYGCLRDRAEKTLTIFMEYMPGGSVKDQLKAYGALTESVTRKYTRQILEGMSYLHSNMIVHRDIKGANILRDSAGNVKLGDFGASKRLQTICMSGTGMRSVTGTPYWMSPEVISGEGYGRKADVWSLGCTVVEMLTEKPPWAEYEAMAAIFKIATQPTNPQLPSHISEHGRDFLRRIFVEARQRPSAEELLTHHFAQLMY

[7] = target: Protein-tyrosine kinase 2-beta (Homo sapiens) (UniProt Q14289); assay: Selectivity interaction (KinomeScan (DiscoverX)) EUB0001619a PTK2B; conditions: at 1 µM
Chain of Protein-tyrosine kinase 2-beta (Homo sapiens) (Q14289 whole entry, looked up): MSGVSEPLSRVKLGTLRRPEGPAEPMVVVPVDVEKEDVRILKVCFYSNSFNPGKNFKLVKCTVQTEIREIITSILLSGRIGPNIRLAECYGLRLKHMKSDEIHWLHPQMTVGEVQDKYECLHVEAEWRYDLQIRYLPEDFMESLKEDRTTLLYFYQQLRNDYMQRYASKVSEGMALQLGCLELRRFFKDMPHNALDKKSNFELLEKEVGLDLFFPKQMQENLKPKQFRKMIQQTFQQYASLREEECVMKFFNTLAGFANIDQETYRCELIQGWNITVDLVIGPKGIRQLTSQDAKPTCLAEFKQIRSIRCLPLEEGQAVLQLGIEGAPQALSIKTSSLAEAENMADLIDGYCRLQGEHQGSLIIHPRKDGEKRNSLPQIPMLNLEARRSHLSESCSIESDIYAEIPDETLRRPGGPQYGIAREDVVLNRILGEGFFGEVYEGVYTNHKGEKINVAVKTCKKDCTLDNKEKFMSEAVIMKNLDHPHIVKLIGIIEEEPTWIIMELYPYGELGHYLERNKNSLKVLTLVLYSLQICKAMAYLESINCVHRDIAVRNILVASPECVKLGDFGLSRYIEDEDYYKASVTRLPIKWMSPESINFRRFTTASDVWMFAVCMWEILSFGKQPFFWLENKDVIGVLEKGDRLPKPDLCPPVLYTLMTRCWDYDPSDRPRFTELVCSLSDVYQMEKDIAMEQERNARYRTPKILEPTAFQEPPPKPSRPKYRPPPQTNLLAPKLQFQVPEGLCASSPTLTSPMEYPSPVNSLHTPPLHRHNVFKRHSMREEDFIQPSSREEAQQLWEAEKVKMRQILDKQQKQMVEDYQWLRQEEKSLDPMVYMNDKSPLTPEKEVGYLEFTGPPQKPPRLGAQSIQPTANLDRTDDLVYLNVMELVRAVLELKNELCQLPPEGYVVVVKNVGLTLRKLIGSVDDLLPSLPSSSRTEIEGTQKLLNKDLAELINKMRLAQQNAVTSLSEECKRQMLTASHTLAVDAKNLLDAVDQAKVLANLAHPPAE

Chain of Tyrosine-protein kinase Fer (Homo sapiens) (P16591 whole entry, looked up): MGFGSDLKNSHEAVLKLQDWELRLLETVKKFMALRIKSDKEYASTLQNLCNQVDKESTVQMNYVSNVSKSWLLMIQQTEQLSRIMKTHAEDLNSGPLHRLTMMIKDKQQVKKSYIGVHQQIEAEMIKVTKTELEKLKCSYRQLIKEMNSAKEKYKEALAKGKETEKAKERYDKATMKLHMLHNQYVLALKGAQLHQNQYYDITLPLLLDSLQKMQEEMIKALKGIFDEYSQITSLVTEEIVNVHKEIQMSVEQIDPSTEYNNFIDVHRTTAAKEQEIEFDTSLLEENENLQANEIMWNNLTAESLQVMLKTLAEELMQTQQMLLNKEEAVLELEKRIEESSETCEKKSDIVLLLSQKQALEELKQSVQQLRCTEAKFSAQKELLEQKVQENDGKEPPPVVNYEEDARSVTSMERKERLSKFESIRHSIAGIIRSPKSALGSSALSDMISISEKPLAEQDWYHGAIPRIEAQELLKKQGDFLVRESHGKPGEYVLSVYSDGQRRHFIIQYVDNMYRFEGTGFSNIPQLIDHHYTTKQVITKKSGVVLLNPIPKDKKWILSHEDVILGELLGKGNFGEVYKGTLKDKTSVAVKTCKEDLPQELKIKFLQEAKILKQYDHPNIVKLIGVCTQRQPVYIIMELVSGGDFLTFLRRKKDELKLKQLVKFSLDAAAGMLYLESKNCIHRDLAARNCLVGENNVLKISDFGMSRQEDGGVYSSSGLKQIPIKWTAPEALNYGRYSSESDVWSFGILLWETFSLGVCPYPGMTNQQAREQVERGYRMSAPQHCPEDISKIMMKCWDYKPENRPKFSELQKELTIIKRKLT
Chain of Cyclin-dependent kinase 16 (Homo sapiens) (Q00536 whole entry): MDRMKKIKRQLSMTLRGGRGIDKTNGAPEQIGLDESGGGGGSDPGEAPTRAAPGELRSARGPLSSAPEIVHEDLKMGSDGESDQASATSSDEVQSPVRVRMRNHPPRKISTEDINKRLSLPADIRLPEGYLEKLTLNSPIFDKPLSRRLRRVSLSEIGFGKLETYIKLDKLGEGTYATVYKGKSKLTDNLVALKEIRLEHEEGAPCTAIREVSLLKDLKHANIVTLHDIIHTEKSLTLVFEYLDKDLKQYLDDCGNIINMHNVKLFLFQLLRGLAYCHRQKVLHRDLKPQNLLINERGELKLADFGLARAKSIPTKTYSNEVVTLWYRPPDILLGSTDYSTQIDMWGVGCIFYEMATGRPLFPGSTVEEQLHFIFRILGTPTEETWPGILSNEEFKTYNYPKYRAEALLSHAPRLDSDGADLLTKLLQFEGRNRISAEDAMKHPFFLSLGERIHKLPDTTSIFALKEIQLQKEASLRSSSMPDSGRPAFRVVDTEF
Chain of Myosin-IIIa (Homo sapiens) (Q8NEV4 whole entry): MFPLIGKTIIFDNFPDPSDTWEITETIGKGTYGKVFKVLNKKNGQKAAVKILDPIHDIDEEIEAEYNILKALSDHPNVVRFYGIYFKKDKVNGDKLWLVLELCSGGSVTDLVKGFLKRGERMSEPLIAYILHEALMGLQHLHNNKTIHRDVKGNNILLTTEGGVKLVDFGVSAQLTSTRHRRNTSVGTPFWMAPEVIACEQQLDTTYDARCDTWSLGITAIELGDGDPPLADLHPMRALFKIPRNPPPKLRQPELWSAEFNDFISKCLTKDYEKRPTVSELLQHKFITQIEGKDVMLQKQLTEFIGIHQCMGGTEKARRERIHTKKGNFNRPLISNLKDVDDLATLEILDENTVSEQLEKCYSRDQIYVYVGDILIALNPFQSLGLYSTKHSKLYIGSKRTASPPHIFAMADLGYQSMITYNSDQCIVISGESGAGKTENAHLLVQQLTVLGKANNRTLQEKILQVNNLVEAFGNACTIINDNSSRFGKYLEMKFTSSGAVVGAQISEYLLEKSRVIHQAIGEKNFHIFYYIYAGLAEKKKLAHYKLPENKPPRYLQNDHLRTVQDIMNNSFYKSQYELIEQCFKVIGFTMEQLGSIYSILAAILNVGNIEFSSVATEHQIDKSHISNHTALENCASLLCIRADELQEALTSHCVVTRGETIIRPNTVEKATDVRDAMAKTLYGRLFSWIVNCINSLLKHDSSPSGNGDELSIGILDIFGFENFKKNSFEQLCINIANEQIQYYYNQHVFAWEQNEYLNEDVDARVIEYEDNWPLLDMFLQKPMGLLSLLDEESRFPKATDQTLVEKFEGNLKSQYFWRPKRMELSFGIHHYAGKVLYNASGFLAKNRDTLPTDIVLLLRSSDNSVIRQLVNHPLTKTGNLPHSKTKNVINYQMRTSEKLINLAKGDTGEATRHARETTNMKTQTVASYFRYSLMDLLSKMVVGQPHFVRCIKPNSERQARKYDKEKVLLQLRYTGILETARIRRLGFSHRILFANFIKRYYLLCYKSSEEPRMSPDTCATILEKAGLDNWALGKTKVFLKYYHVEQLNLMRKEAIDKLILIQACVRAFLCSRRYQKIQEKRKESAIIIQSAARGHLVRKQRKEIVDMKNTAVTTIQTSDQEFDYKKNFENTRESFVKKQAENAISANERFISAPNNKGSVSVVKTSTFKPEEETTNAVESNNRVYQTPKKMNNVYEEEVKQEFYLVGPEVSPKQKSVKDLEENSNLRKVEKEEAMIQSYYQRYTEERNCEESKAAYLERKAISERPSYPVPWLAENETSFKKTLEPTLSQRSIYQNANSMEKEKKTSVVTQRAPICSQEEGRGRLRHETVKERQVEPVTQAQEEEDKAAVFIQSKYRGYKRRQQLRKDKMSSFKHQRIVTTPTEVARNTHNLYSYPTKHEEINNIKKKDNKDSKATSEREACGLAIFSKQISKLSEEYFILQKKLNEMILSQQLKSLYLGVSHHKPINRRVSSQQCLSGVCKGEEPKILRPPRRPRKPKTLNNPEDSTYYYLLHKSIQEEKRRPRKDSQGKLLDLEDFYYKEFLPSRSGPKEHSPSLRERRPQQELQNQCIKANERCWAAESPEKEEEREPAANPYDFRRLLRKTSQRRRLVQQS

For `Cc1ccc(-c2ccc3c(ccc4sc5c(c43)NC[C@@H](C)NC5=O)n2)cn1`, which % of inhibition [1] is on record?
The % of inhibition was 93%.

With `O=C(NOC[C@H](O)CO)c1ccc(F)c(F)c1Nc1ccc(I)cc1F` as the molecule, how does the % of control [2] read?
The % of control was 47%.

With `Cc1cc([C@@H](C)Nc2ccccc2C(=O)O)c2nc(N3CCOCC3)cc(=O)n2c1` [AZD-6482] as the molecule, how does the % of control [3] read?
The % of control was 100%.

How did the % of control [4] turn out when `CNC(=O)Nc1ccc(-c2nc(N3CC4CCC(C3)O4)c3cnn(C4CCC5(CC4)OCCO5)c3n2)cc1` was run?
The % of control was 100%.

What about the % of control [5] of the same molecule?
Its % of control is 100%.

What about the % of control [6] of the same molecule?
The % of control was 100%.

For `N#Cc1cccc(-c2c[nH]c3ncnc(N4CCOCC4)c23)c1`, which % of control [7] is on record?
Its % of control is 100%.
